Data published in patent US6150126A, “Daphnia reproductive bioassay for testing toxicity of aqueous samples and presence of an endocrine disrupter” (Wisconsin Alumni Research Foundation, priority 1998, dated 2000).
Like-named read-outs stand apart in the source and are kept apart here.

Assays:
retinoid X receptors = settings: cited from earlier work
[1] = system: Daphnia galeata mendotae (CDF-1 clone); settings: in vivo
Daphnia [2] = settings: in vivo; cited from earlier work
Daphnia [3] = settings: in vivo; cited from earlier work; remark: listed apart in the source
[4] = system: Daphnia galeata mendotae Wingra CDF-1 clone; settings: in vivo
vertebrate systems = settings: cited from earlier work
Daphnia carinata = settings: in vivo; cited from earlier work
Daphnia [5] = settings: in vivo, cited from earlier work
D. magna [6] = settings: daphnia, in vivo; cited from earlier work
[7] = system: Daphnia galeata-mendotae (clone CDF-1); settings: in vivo
D. magna [8] = settings: daphnia, in vivo, cited from earlier work
fish, mammals and birds = settings: cited from earlier work
Daphnia [9] = settings: in vivo, 48 h
Daphnia [10] = settings: in vivo; cited from earlier work; remark: listed apart in the source

Q: For `COC(C)(C)CCC[C@H](C)C/C=C/C(C)=C/C(=O)OC(C)C` (racemic) [methoprene], which “Gene transcription in mammals via retinoid X receptors” value (retinoid X receptors) is on record?
A: can stimulate gene transcription in mammals by activating retinoid X receptors

Q: Which results are given for `ClC1=C(Cl)[C@]2(Cl)[C@@H]3[C@@H]4C[C@@H]([C@H]5O[C@@H]45)[C@@H]3[C@@]1(Cl)C2(Cl)Cl` [Dieldrin, dieldrin]?
A: Concentration of no effect on sex ratio / above which sex ratio is reduced ([1]; daphnia): about 30 ppb; X intercept of regression line of sex ratio index vs log dieldrin ([1]; daphnia): 31 ppb; Adult survival or clutch size, effect [1]: Neither insecticide significantly affected adult survival or clutch size; Endocrine disruption activity [1]: shows endocrine disruption activity in Daphnia; Morphological abnormalities [1]: Neither insecticide caused morphological abnormalities; Regression line, sex ratio index (Y) vs log ppb dieldrin (X) [1]: Y=-0.0195X+0.299; Concentration below which little or no effect on population growth rate (Daphnia [2]): about 220 ppb; Effect on sex ratio (Daphnia [3]): no effect of dieldrin on sex ratio; Effect versus controls (sex ratio, males) [4]: no difference; Estrogenicity (vertebrate systems): weakly estrogenic

Q: What does the source list for `O=S1OCC2C(CO1)C1(Cl)C(Cl)=C(Cl)C2(Cl)C1(Cl)Cl` (stereo not drawn) [Endosulfan, endosulfan]?
A: Adult survival or clutch size, effect [1]: Neither insecticide significantly affected adult survival or clutch size; Morphological abnormalities [1]: Neither insecticide caused morphological abnormalities; Sex ratio, effect [1]: No endosulfan effect was observed; Effect versus controls (sex ratio, males) [4]: a tendency for a reduction of males; Estrogenicity (vertebrate systems): weakly estrogenic; Concentrations reducing body length and weight, egg mass and brood size (Daphnia carinata): 40-160 ppb; Lowest concentration with reported morphological changes (Daphnia [5]; daphnia): 0.1 μgL^-1; Concentration affecting Daphnia population growth (Daphnia [5]): about 120 ppb; Concentration reducing filtration and assimilation rates (Daphnia [5]): 440-600 ppb

Q: Which results are given for nonylphenol?
A: No-observed effect concentration (NOEC) (D. magna [6]): 24 μgL-L^-1; Live young with deformity [7]: 11%; Population growth rate r [7]: nonlinear pattern; Survival [7]: low survival; Chronic LC50 (D. magna [8]; 168 h): 120 µg/L; Chronic LC50 (D. magna [8]; 336 h): 120 µg/L; Chronic LC50 (D. magna [8]; 504 h): 100 µg/L; Estrogenicity (fish, mammals and birds): estrogenic to fish, mammals and birds; Mortality (Daphnia [9]): 100%; Developmental deformity (Daphnia [10]): cause a characteristic deformity
